Assays:
[1] = molecular target: T1, human mAChRM1 (Homo sapiens, UniProt P11229); experiment: mAChR M1 cell-based functional assay (calcium mobilization), positive allosteric modulator activity: increase in the EC20 acetylcholine response; details: for Emax: PAM mode; for EC50: read-out: PAM Activity Human M1 EC50
T1 construct: host or cells: CHO-K1
T1 sequence (P11229 1-460): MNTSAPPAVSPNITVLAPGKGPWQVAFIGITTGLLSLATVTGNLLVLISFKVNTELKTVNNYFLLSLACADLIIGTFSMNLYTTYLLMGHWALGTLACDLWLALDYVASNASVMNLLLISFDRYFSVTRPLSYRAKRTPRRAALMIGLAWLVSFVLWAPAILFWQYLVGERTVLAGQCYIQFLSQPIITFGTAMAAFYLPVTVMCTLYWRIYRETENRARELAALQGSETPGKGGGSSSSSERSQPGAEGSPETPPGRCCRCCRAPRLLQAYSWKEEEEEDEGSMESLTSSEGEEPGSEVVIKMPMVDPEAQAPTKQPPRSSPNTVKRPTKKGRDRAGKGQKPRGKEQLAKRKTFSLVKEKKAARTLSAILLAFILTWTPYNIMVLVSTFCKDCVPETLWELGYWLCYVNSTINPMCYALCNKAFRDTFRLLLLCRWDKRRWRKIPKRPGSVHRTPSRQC
How it was run: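 Potentiation is scored as the rise in an EC20 acetylcholine-evoked calcium signal across 11-point (1:3) compound series, fitted with a four-parameter logistic equation to give EC50 and Emax. Read-out is Fluo-4 fluorescence ratio in hM1-transfected CHO-K1 cells, measured kinetically on FDSS.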

[2] = molecular target: T1, human mAChRM1; experiment: mAChR M1 cell-based functional assay (calcium mobilization), agonist activity upon compound addition, Emax relative to acetylcholine maximum; details: for Agonist Activity Human M1 EC50 / EC50: calcium mobilization upon compound addition; for Emax: relative to the maximum for acetylcholine
How it was run: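 Emax is given as a percentage of the maximal acetylcholine response, from four-parameter curves of compound-evoked calcium mobilization. Human M1-transfected CHO-K1 cells carried Fluo-4 dye, and compound (11 concentrations, 1:3 steps) was applied at 4 s of a 300 s kinetic fluorescence recording.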

[3] = increase in the EC20 acetylcholine response

Compound | Emax [1] [%] | EC50 [1, 3] [nM] | Agonist Activity Human M1 EC50 [2] | EC50 [2] [nM] | Emax [2] [%] | PAM Activity Human M1 EC50 [1, 3]
CC(C)(O)c1ccc(-c2ccc(CN3Cc4ncccc4C3=O)cc2)cc1 [Compound 11, 6-((4′-(2-hydroxypropan-2-yl)-[1,1′-biphenyl]-4-yl)methyl)-6,7-dihydro-5H-pyrrolo[3,4-b]pyridin-5-one] | 65 | 6400 | inactive | – | – | –
Cn1cc2c(-c3ccc(CN4Cc5ncccc5C4=O)cc3)ccc(C(C)(C)O)c2n1 [Compound 59, 6-(4-(7-(2-hydroxypropan-2-yl)-2-methyl-2H-indazol-4-yl)benzyl)-6,7-dihydro-5H-pyrrolo[3,4-b]pyridin-5-one] | 67 | 396 | – | ≥ 10000 | 16 | –
CC(C)(O)c1ccc(-c2cc(F)c(CN3Cc4ncccc4C3=O)c(F)c2)c2ncccc12 [Compound 37, 6-(2,6-difluoro-4-(5-(2-hydroxypropan-2-yl)quinolin-8-yl)benzyl)-6,7-dihydro-5H-pyrrolo[3,4-b]pyridin-5-one] | – | – | inactive | – | – | inactive
Cc1cc(-c2cc(C(C)(C)O)c3cn(C)nc3c2)cc(F)c1CN1Cc2ncccc2C1=O [Compound 20, 6-(2-fluoro-4-(4-(2-hydroxypropan-2-yl)-2-methyl-2H-indazol-6-yl)-6-methylbenzyl)-6,7-dihydro-5H-pyrrolo[3,4-b]pyridin-5-one] | 47 | ≥ 10000 | inactive | – | – | –
Cn1cc2c(C(C)(C)O)cc(-c3ccc(CN4Cc5ncccc5C4=O)c(F)c3)cc2n1 [Compound 21, 6-(2-fluoro-4-(4-(2-hydroxypropan-2-yl)-2-methyl-2H-indazol-6-yl)benzyl)-6,7-dihydro-5H-pyrrolo[3,4-b]pyridin-5-one] | 50 | ≥ 10000 | inactive | – | – | –
Cn1cc2c(-c3ccc(CN4Cc5ncccc5C4=O)c(F)c3)cc(C(C)(C)O)cc2n1 [Compound 26, 6-(2-fluoro-4-(6-(2-hydroxypropan-2-yl)-2-methyl-2H-indazol-4-yl)benzyl)-6,7-dihydro-5H-pyrrolo[3,4-b]pyridin-5-one] | 83 | 1280 | inactive | – | – | –
Cc1cc(-c2cc(C(C)(C)O)c3nn(C)cc3c2)cc(F)c1CN1Cc2ncccc2C1=O [Compound 50, 6-(2-fluoro-4-(7-(2-hydroxypropan-2-yl)-2-methyl-2H-indazol-5-yl)-6-methylbenzyl)-6,7-dihydro-5H-pyrrolo[3,4-b]pyridin-5-one] | 66 | 784 | inactive | – | – | –
Cn1cc2c(-c3cc(Cl)c(CN4Cc5ncccc5C4=O)c(C4CC4)c3)ccc(C(C)(C)O)c2n1 [Compound 67, 6-(2-chloro-6-cyclopropyl-4-(7-(2-hydroxypropan-2-yl)-2-methyl-2H-indazol-4-yl)benzyl)-6,7-dihydro-5H-pyrrolo[3,4-b]pyridin-5-one] | 62 | 147 | – | 6100 | 32 | –
Cn1cc(-c2ccc(CN3Cc4ncccc4C3=O)c(F)c2)c(C(C)(C)O)n1 [Compound 29, 6-(2-fluoro-4-(3-(2-hydroxypropan-2-yl)-1-methyl-1H-pyrazol-4-yl)benzyl)-6,7-dihydro-5H-pyrrolo[3,4-b]pyridin-5-one] | 56 | ≥ 10000 | inactive | – | – | –

Second part, the compound after the results:

Emax [1] [%] | EC50 [1, 3] [nM] | Agonist Activity Human M1 EC50 [2] | EC50 [2] [nM] | Emax [2] [%] | PAM Activity Human M1 EC50 [1, 3] | Compound
77 | 450 | inactive | – | – | – | Cn1cc2c(-c3cc(F)c(CN4Cc5cccc(F)c5C4=O)c(F)c3)ccc(C(C)(O)C(F)F)c2n1 (centres unmarked) [Compound 158, 2-(4-(7-(1,1-difluoro-2-hydroxypropan-2-yl)-2-methyl-2H-indazol-4-yl)-2,6-difluorobenzyl)-7-fluoroisoindolin-1-one]
73 | 1000 | inactive | – | – | – | CC(C)(O)c1ccc(-c2cc(F)c(CN3Cc4ncccc4C3=O)c(F)c2)c2c1OCO2 [Compound 87, 6-(2,6-difluoro-4-(7-(2-hydroxypropan-2-yl)benzo[d][1,3]dioxol-4-yl)benzyl)-6,7-dihydro-5H-pyrrolo[3,4-b]pyridin-5-one]
70 | ≥ 10000 | inactive | – | – | – | Cn1cc2c(-c3cnc(CN4Cc5ncccc5C4=O)cn3)ccc(C(C)(C)O)c2n1 [Compound 109, 6-((5-(7-(2-hydroxypropan-2-yl)-2-methyl-2H-indazol-4-yl)pyrazin-2-yl)methyl)-6,7-dihydro-5H-pyrrolo[3,4-b]pyridin-5-one]
43 | ≥ 10000 | inactive | – | – | – | Cn1cc2c(-c3cnc(CN4Cc5ncccc5C4=O)nc3)ccc(C(C)(C)O)c2n1 [Compound 110, 6-[[5-[7-(1-Hydroxy-1-methyl-ethyl)-2-methyl-indazol-4-yl]pyrimidin-2-yl]methyl]-7H-pyrrolo[3,4-b]pyridin-5-one]
76 | 744 | inactive | – | – | – | Cn1cc2cc(-c3ccc(CN4Cc5cccc(F)c5C4=O)c(F)c3)cc(C(C)(C)O)c2n1 [Compound 166, 7-fluoro-2-(2-fluoro-4-(7-(2-hydroxypropan-2-yl)-2-methyl-2H-indazol-5-yl)benzyl)isoindolin-1-one]
86 | 96 | – | 1860 | 27 | – | [2H]C([2H])([2H])C(C)(O)c1ccc(-c2cc(F)c(CN3Cc4ncccc4C3=O)c(F)c2)c2cn(C)nc12 (centres unmarked) [Compound 95, 6-(2,6-difluoro-4-(7-(2-hydroxypropan-2-yl-1,1,1-d3)-2-methyl-2H-indazol-4-yl)benzyl)-6,7-dihydro-5H-pyrrolo[3,4-b]pyridin-5-one]
75 | 358 | inactive | – | – | – | Cn1cc2cc(-c3cc(F)c(CN4Cc5cccc(F)c5C4=O)c(F)c3)cc(C(C)(C)O)c2n1 [Compound 155, 2-(2,6-difluoro-4-(7-(2-hydroxypropan-2-yl)-2-methyl-2H-indazol-5-yl)benzyl)-7-fluoroisoindolin-1-one]
80 | 361 | inactive | – | – | – | Cn1cc2c(-c3cc(F)c(CN4Cc5cccc(F)c5C4=O)c(Cl)c3)ccc(C(C)(C)O)c2n1 [Compound 165, 2-(2-chloro-6-fluoro-4-(7-(2-hydroxypropan-2-yl)-2-methyl-2H-indazol-4-yl)benzyl)-7-fluoroisoindolin-1-one]
71 | 1210 | inactive | – | – | – | Cn1cc2c(-c3ccc(CN4Cc5cccc(F)c5C4=O)c(F)c3F)ccc(C(C)(C)O)c2n1 [Compound 164, 2-(2,3-difluoro-4-(7-(2-hydroxypropan-2-yl)-2-methyl-2H-indazol-4-yl)benzyl)-7-fluoroisoindolin-1-one]
84 | 1440 | inactive | – | – | – | Cn1cc2c(-c3cc(F)c(CN4Cc5ncccc5C4=O)c(F)c3)ccc(C(O)(C3CC3)C3CC3)c2n1 [Compound 84, 6-(4-(7-(dicyclopropyl(hydroxy)methyl)-2-methyl-2H-indazol-4-yl)-2,6-difluorobenzyl)-6,7-dihydro-5H-pyrrolo[3,4-b]pyridin-5-one]

— patent US20260138978A1, “POSITIVE ALLOSTERIC MODULATORS OF THE MUSCARINIC ACETYLCHOLINE RECEPTOR M1” (Vanderbilt University, priority 2022, published 2026)
